Test results: ChEMBL document CHEMBL1201862, “PubChem BioAssay data set” (2004)
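Method: 48-hour compound exposure of cells in 96-well plates, five concentrations, linear interpolation of endpoints. GI50 is the concentration that inhibits growth by half.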 Active and inactive are the calls of the source. Cut-off read from the data, not from the text of the source: active = GI50 up to about 1.1 µM and inactive = higher.

What was measured:
Assay in all cases: NCI tumour cell line growth inhibition, 48 h
[1] = test system: UO-31
[2] = test system: SR
[3] = test system: T47D
[4] = test system: CAKI-1
[5] = test system: HCC 2998
[6] = test system: RXF 393
[7] = test system: MOLT-4
[8] = test system: MCF7
[9] = test system: PC-3
[10] = test system: SF-295
[11] = test system: SF-539
[12] = test system: HOP-92
[13] = test system: U-251
[14] = test system: NCI-H460
[15] = test system: KM12
[16] = test system: NCI-H226
[17] = test system: HT-29
[18] = test system: SK-OV-3
[19] = test system: OVCAR-3
[20] = test system: MDA-N
[21] = test system: MDA-MB-435
[22] = test system: SK-MEL-28
[23] = test system: MDA-MB-231
[24] = test system: M14
[25] = test system: UACC-62
[26] = test system: HOP-62
[27] = test system: OVCAR-8
[28] = test system: SK-MEL-5
[29] = test system: A549
[30] = test system: HCT-15
[31] = test system: SN12C
[32] = test system: COLO 205
[33] = test system: OVCAR-4
[34] = test system: RPMI-8226
[35] = test system: OVCAR-5
[36] = test system: HCT-116
[37] = test system: Hs-578T
[38] = test system: NCI-H23
[39] = test system: CCRF-CEM
[40] = test system: HL-60
[41] = test system: NCI/ADR-RES
[42] = test system: SW-620
[43] = test system: UACC-257
[44] = test system: A498
[45] = test system: ACHN
[46] = test system: SNB-75
[47] = test system: NCI-H522
[48] = test system: EKVX
[49] = test system: BT-549
[50] = test system: Malme-3M
[51] = test system: 786-0
[52] = test system: IGROV-1
[53] = test system: SK-MEL-2

Structure (SMILES): COC(=O)C(CCSc1ccccc1)C(=O)OC
- GI50 [1]: > 100 µM (inactive)
- GI50 [2]: > 100 µM (inactive)
- GI50 [3]: > 100 µM (inactive)
- GI50 [4]: > 100 µM (inactive)
- GI50 [5]: > 100 µM (inactive)
- GI50 [6]: > 100 µM (inactive)
- GI50 [7]: > 100 µM (inactive)
- GI50 [8]: > 100 µM (inactive)
- GI50 [9]: > 100 µM (inactive)
- GI50 [10]: > 100 µM (inactive)
- GI50 [11]: > 100 µM (inactive)
- GI50 [12]: > 100 µM (inactive)
- GI50 [13]: > 100 µM (inactive)
- GI50 [14]: > 100 µM (inactive)
- GI50 [15]: > 100 µM (inactive)
- GI50 [16]: > 100 µM (inactive)
- GI50 [17]: > 100 µM (inactive)
- GI50 [18]: > 100 µM (inactive)
- GI50 [19]: > 100 µM (inactive)
- GI50 [20]: > 100 µM (inactive)
- GI50 [21]: > 100 µM (inactive)
- GI50 [22]: > 100 µM (inactive)
- GI50 [23]: > 100 µM (inactive)
- GI50 [24]: > 100 µM (inactive)
- GI50 [25]: > 100 µM (inactive)
- GI50 [26]: > 100 µM (inactive)
- GI50 [27]: > 100 µM (inactive)
- GI50 [28]: > 100 µM (inactive)
- GI50 [29]: > 100 µM (inactive)
- GI50 [30]: > 100 µM
- GI50 [31]: > 100 µM (inactive)
- GI50 [32]: > 100 µM (inactive)
- GI50 [33]: > 100 µM (inactive)
- GI50 [34]: > 100 µM (inactive)
- GI50 [35]: > 100 µM (inactive)
- GI50 [36]: > 100 µM (inactive)
- GI50 [37]: 1.58 µM (inactive)
- GI50 [38]: > 100 µM (inactive)
- GI50 [39]: > 100 µM (inactive)
- GI50 [40]: 79.3 µM (inactive)
- GI50 [41]: > 100 µM (inactive)
- GI50 [42]: > 100 µM (inactive)
- GI50 [43]: > 100 µM (inactive)
- GI50 [44]: > 100 µM (inactive)
- GI50 [45]: > 100 µM (inactive)
- GI50 [46]: > 100 µM (inactive)
- GI50 [47]: 93.8 µM (inactive)
- GI50 [48]: > 100 µM (inactive)
- GI50 [49]: > 100 µM (inactive)
- GI50 [50]: 10.8 µM (inactive)
- GI50 [51]: > 100 µM (inactive)
- GI50 [52]: > 100 µM (inactive)
- GI50 [53]: > 100 µM (inactive)
